From ChEMBL document CHEMBL1629605, “Effect of a single dose of ritonavir on the pharmacokinetic behavior of elvucitabine, a nucleoside reverse transcriptase inhibitor, administered in healthy volunteers” (Antimicrob Agents Chemother, 2009)

Key:
[1] = Terminal half life in human at 20 mg administered under fasting condition; assay type: ADME, organism-based; details: in vivo, read-out: beta t1/2 (converted)
[2] = Terminal half life in human at 20 mg administered under fasting condition presence of 300 mg of ritonavir; assay type: ADME, organism-based; details: in vivo, read-out: beta t1/2 (converted)
[3] = AUC (0 to 24 hrs) in human at 20 mg administered under fasting condition; assay type: ADME, organism-based; set-up: time < 24 hr, dose 20 mg; details: plasma
[4] = AUC (0 to t) in human at 20 mg administered under fasting condition; assay type: ADME, organism-based; details: plasma
[5] = AUC (0 to infinity) in human at 20 mg administered under fasting condition; assay type: ADME, organism-based; set-up: dose 20 mg, time infinity; details: plasma
[6] = Cmax in human at 20 mg administered under fasting condition; details: in vivo
[7] = Clearance in human at 20 mg administered under fasting condition; assay type: ADME, organism-based; details: in vivo
[8] = Tmax in human at 20 mg administered under fasting condition; assay type: ADME, organism-based; details: in vivo
[9] = Half life in human at 20 mg administered under fasting condition; assay type: ADME, organism-based; details: in vivo
[10] = AUC (0 to 24 hrs) in human at 20 mg administered under fasting condition in presence of 300 mg of ritonavir; assay type: ADME, organism-based; set-up: time < 24 hr, dose 20 mg; details: plasma
[11] = AUC (0 to t) in human at 20 mg administered under fasting condition in presence of 300 mg of ritonavir; assay type: ADME, organism-based; details: plasma
[12] = AUC (0 to infinity) in human at 20 mg administered under fasting condition in presence of 300 mg of ritonavir; assay type: ADME, organism-based; set-up: dose 20 mg, time infinity; details: plasma
[13] = Apparent oral clearance in human at 20 mg administered under fasting condition; assay type: ADME, organism-based; details: in vivo
[14] = Apparent oral clearance in human at 20 mg administered under fasting condition presence of 300 mg of ritonavir; assay type: ADME, organism-based; details: in vivo
Homo sapiens [15] = test: Central volume of distribution with respect to the bioavailability in human at 20 mg administered under fasting condition presence of 300 mg of ritonavir; assay type: ADME, organism-based; details: in vivo
Homo sapiens [16] = test: Distributional clearance with respect to the bioavailability in human at 20 mg administered under fasting condition; assay type: ADME, organism-based; details: in vivo
Homo sapiens [17] = test: Distributional clearance with respect to the bioavailability in human at 20 mg administered under fasting condition presence of 300 mg of ritonavir; assay type: ADME, organism-based; details: in vivo
Homo sapiens [18] = test: Peripheral volume of distribution with respect to the bioavailability in human at 20 mg administered under fasting condition; assay type: ADME, organism-based; details: in vivo
Homo sapiens [19] = test: Peripheral volume of distribution with respect to the bioavailability in human at 20 mg administered under fasting condition presence of 300 mg of ritonavir; assay type: ADME, organism-based; details: in vivo
[20] = Volume of distribution at steady state with respect to the bioavailability in human at 20 mg administered under fasting condition; assay type: ADME, organism-based; details: in vivo, read-out: Vss/F
[21] = Volume of distribution at steady state with respect to the bioavailability in human at 20 mg administered under fasting condition presence of 300 mg of ritonavir; assay type: ADME, organism-based; details: in vivo, read-out: Vss/F
[22] = Clearance in human at 20 mg administered under fasting condition in presence of 300 mg of ritonavir; assay type: ADME, organism-based; details: in vivo
[23] = Tmax in human at 20 mg administered under fasting condition in presence of 300 mg of ritonavir; assay type: ADME, organism-based; details: in vivo
[24] = Half life in human at 20 mg administered under fasting condition in presence of 300 mg of ritonavir; assay type: ADME, organism-based; details: in vivo
[25] = Central volume of distribution with respect to the bioavailability in human at 20 mg administered under fasting condition; assay type: ADME, organism-based; details: in vivo, read-out: Vc/F
Homo sapiens [26] = test: Time prior to start absorption at first absorption site in human at 20 mg administered under fasting condition; assay type: ADME, organism-based; details: in vivo
Homo sapiens [27] = test: Time prior to start absorption at first absorption site in human at 20 mg administered under fasting condition presence of 300 mg of ritonavir; assay type: ADME, organism-based; details: in vivo
Homo sapiens [28] = test: Time prior to start absorption at second absorption site in human at 20 mg administered under fasting condition; assay type: ADME, organism-based; details: in vivo
Homo sapiens [29] = test: Time prior to start absorption at second absorption site in human at 20 mg administered under fasting condition presence of 300 mg of ritonavir; assay type: ADME, organism-based; details: in vivo
Homo sapiens [30] = test: Absorption rate constant at first absorption site in human at 20 mg administered under fasting condition; assay type: ADME, organism-based; details: in vivo
Homo sapiens [31] = test: Absorption rate constant at first absorption site in human at 20 mg administered under fasting condition presence of 300 mg of ritonavir; assay type: ADME, organism-based; details: in vivo
Homo sapiens [32] = test: Absorption rate constant at second absorption site in human at 20 mg administered under fasting condition; assay type: ADME, organism-based; details: in vivo
Homo sapiens [33] = test: Absorption rate constant at second absorption site in human at 20 mg administered under fasting condition presence of 300 mg of ritonavir; assay type: ADME, organism-based; details: in vivo
clinical = details: human, in vivo
Description: Cmax in human at 20 mg administered under fasting condition in presence of 300 mg of ritonavir

## Nc1nc(=O)n([C@@H]2C=C[C@H](CO)O2)cc1F [ELVUCITABINE]
[1]
  half-life: 58.6 h
[2]
  half-life: 60.2 h
[3]
  AUC(0-t) at 24 h: 0.732 µg·h/mL
[4]
  AUC(0-t): 1.03 µg·h/mL
[5]
  AUC(0-inf): 1.24 µg·h/mL
[6]
  Cmax: 0.136 µg/mL
[7]
  clearance: 293 mL/min
[8]
  Tmax: 3.78 h
[9]
  half-life: 59.1 h
[10]
  AUC(0-t) at 24 h: 0.568 µg·h/mL
[11]
  AUC(0-t): 0.79 µg·h/mL
[12]
  AUC(0-inf): 0.979 µg·h/mL
[13]
  CL/F: 297 mL/min
[14]
  CL/F: 487 mL/min
Homo sapiens [15]
  Vc/F: 24.8 L
Homo sapiens [16]
  CLd/F: 16.3 L/h
Homo sapiens [17]
  CLd/F: 19.3 L/h
Homo sapiens [18]
  Vp/F: 703 L
Homo sapiens [19]
  Vp/F: 897 L
[20]
  Vd/F: 729 L
[21]
  Vd/F: 921 L
[22]
  clearance: 467 mL/min
[23]
  Tmax: 5.12 h
[24]
  half-life: 54.2 h
[25]
  Vd/F: 26.1 L
Homo sapiens [26]
  Time: 1.6 h
Homo sapiens [27]
  Time: 2.96 h
Homo sapiens [28]
  Time: 2.3 h
Homo sapiens [29]
  Time: 3.54 h
Homo sapiens [30]
  ka: 0.183 h⁻¹
Homo sapiens [31]
  ka: 0.127 h⁻¹
Homo sapiens [32]
  ka: 0.459 h⁻¹
Homo sapiens [33]
  ka: 0.483 h⁻¹
clinical
  Cmax: 0.102 µg/mL
